The record followed here is patent US10485814B2, “Nicotinamide riboside analogs and pharmaceutical compositions and uses thereof” (GlaxoSmithKline Intellectual Property (No. 2) Limited, priority 2014, dated 2019).

In the assay the test system is Human dermal fibroblasts. The assay can be described thus: TNFα-induced gene expression in dermal fibroblasts (QPCR). In kind it is cell-based. Conditions: 30 hr. As to the method:
Human dermal fibroblasts were grown in regular culture media as described in example 23 above and seeded in 12-well plates at 2×10^5 cells per well for overnight. Cells were then replenished with fresh medium and treated with TNFα (10 ng/ml) with and without NRH (200 μM) for 30 hr. At the end of the incubation, cells were washed once with HBSS with Ca^2+ and Mg^2+ (Life Technologies), and subject to RNA isolation and QPCR analyses.

`NC(=O)C1=CN([C@@H]2O[C@H](CO)[C@@H](O)[C@H]2O)C=CC1` [NRH, dihydronicotinamide riboside]: where the note is “NRH 200 μM”, the “basal COX-2 gene expression” value is listed as “reduced” and the “expression level of NRF2” value is on record as “slightly increased”. The “TNF-α-induced COX-2 gene expression” value (TNFα 10 ng/ml with NRH 200 μM) is reported as “reduced”.
